From patent US20260109715A1, “IMIDAZOPYRIDINE DERIVATIVES WITH BICYCLIC STRUCTURE” (PUBLIC UNIVERSITY CORPORATION YOKOHAMA CITY UNIVERSITY, priority 2022, published 2026)

Experiments:
human SMG1 enzyme = human SMG1 enzyme (Homo sapiens, UniProt Q96Q15); test: Measurement of SMG1 kinase activity (ADP-Glo Kinase Assay); type: biochemical; settings: purified human SMG1 enzyme 5 nM, Upf1 peptide substrate, ATP 4 μM; qAC50 synonymous with IC50; read-out: Test Example 1 ADP-Glo IC50
How it was run: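 Purified human SMG1 (5 nM) preincubated with compound (1% DMSO) 15 min at room temperature in HEPES pH 7.5 buffer with MnCl2, then reacted 60 min with Upf1 peptide (8 μg/mL) and 4 μM ATP. ADP formed measured by ADP-Glo luminescence; IC50 by 4-parameter logistic fit, normalised to DMSO (0%) and enzyme-free (−100%) wells.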

[1] = tested on: Snhg1 transcript (NMD target gene) in EMT6 murine breast cancer cell line; test: Measurement of NMD inhibitory activity in cells (increase in Snhg1 transcript, real-time PCR); set-up: species or system mouse; settings: Mus musculus, 6 hours treatment, concentration giving 1/2 of maximum Snhg1 fold change of positive control, read-out: Test Example 2 Cell-based Snhg1 EC50
How it was run: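 EMT6 cells treated with serially diluted compound (2% DMSO final) for 6 h; Snhg1 transcript quantified by real-time PCR (ΔΔCT, Tbp endogenous control, untreated wells set to 1). EC50 taken as concentration giving half the maximum fold change of a known NMD inhibitor positive control.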

[2] = tested on: Snhg1 transcript in tumor tissues of mice subcutaneously implanted with EMT6 murine breast cancer cell line; test: Evaluation of NMD inhibitory activity in vivo (Snhg1 transcript in EMT6 tumor tissue after oral administration); settings: 10 mg/kg oral, 6 hours after administration, BALB/c mice
How it was run: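 BALB/c mice bearing subcutaneous EMT6 tumours (engraftment confirmed day 7) dosed orally; tumours excised 6 h post-dose. Snhg1 RNA quantified by qRT-PCR, ΔΔCT with Gapdh as endogenous control, expressed relative to 0.5% methylcellulose vehicle group set at 1.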

Chain of human SMG1 enzyme (Q96Q15 whole entry): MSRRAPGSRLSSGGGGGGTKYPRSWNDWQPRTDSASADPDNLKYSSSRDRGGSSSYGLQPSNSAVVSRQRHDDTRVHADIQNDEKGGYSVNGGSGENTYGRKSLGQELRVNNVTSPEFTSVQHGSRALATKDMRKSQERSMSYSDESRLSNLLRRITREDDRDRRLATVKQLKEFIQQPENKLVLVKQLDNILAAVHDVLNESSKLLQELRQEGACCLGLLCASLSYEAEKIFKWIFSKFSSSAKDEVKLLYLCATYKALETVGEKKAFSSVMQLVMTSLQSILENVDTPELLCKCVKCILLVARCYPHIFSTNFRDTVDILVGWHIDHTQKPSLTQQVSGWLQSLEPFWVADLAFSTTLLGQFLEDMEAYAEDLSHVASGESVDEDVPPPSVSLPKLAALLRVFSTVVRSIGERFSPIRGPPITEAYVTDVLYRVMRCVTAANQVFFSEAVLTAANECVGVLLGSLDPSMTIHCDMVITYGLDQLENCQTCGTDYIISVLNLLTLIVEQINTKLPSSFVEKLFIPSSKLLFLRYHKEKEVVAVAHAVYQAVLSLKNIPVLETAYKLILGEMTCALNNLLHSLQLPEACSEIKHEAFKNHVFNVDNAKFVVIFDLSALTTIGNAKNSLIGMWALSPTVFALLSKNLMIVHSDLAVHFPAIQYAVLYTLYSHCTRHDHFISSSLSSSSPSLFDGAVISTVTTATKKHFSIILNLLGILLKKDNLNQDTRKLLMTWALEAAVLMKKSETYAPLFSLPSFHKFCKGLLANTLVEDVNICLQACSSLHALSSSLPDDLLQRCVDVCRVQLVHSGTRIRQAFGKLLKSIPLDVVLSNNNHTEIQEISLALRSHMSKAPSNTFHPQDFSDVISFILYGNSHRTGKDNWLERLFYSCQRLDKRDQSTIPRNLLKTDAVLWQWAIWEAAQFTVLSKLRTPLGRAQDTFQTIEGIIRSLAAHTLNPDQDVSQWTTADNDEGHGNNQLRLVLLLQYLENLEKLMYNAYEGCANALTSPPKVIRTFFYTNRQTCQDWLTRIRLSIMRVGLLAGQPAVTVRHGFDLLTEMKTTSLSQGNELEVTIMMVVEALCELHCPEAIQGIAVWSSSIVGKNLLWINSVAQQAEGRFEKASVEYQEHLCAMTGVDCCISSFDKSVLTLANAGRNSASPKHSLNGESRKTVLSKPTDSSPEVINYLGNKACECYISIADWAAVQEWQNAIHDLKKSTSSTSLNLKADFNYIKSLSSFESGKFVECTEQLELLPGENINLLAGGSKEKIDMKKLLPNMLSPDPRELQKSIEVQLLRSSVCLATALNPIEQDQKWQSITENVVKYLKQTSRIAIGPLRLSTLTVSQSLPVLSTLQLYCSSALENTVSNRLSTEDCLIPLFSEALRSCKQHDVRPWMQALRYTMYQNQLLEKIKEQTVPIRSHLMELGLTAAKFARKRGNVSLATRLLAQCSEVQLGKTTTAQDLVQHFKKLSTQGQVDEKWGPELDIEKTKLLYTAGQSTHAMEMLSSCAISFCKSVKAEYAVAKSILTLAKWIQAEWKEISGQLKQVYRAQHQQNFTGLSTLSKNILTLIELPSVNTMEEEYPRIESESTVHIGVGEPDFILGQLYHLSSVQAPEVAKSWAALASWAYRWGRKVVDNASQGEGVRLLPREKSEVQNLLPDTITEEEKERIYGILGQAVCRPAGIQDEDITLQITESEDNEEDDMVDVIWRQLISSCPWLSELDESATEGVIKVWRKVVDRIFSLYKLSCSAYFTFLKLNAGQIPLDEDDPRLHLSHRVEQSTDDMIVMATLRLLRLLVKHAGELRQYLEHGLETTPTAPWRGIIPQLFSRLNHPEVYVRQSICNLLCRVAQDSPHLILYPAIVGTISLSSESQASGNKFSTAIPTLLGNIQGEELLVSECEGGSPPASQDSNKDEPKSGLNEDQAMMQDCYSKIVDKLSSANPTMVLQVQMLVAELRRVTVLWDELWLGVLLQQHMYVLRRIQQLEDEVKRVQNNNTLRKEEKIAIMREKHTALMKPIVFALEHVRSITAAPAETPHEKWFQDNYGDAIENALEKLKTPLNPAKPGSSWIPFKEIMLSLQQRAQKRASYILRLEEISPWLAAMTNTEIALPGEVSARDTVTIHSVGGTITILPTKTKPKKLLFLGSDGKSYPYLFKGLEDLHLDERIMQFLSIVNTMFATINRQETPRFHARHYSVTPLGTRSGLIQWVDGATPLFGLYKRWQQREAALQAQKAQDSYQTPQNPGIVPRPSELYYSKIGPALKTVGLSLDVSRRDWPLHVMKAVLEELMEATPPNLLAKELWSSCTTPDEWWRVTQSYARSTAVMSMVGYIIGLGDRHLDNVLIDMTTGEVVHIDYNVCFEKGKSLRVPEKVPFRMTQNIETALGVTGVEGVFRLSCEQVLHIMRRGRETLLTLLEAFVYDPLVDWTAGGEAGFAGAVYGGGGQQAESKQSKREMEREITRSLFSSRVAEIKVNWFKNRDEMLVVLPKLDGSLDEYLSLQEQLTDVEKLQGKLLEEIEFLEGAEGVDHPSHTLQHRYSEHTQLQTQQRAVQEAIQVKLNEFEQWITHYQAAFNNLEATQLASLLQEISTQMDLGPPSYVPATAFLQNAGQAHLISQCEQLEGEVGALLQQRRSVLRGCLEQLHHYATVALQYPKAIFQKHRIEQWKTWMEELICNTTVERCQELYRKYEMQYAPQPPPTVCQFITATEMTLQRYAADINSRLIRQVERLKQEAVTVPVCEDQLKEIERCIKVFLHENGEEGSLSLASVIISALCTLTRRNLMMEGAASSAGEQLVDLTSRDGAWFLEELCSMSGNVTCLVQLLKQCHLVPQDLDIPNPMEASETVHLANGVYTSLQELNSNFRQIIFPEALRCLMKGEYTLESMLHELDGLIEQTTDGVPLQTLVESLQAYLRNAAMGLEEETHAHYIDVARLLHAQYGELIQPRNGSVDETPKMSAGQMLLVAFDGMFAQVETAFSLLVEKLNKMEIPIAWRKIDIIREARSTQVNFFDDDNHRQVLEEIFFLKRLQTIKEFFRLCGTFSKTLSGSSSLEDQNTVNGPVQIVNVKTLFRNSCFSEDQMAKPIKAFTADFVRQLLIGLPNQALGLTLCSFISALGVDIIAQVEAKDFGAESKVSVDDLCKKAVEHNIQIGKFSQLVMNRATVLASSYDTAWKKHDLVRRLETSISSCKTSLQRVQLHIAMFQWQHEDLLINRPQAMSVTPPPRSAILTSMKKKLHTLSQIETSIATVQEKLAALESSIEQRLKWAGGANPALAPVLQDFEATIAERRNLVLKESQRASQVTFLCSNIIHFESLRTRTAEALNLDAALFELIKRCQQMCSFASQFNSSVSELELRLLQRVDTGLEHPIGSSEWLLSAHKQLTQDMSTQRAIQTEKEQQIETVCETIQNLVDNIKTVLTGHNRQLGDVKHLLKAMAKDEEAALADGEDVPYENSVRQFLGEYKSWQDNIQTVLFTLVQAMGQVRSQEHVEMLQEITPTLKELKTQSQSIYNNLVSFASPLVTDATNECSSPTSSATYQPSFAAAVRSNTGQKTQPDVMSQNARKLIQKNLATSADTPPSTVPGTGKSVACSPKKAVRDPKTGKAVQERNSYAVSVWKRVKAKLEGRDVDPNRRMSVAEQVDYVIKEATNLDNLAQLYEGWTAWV

IC50 (human SMG1 enzyme)	EC50 [1]	SMILES	Snhg1 fold change [2]
960 pM	5100 pM	CS(=O)(=O)O.Cc1c(-c2nccc3[nH]c(=O)c(-c4nc5c(C6CCOCC6)nc(Cl)cc5[nH]4)cc23)c(C2CC2)nn1C(F)F [Example 153, 3-[6-chloro-4-(tetrahydro-2H-pyran-4-yl)-1H-imidazo[4,5-c]pyridin-2-yl]-5-[3-cyclopropyl-1-(difluoromethyl)-5-methyl-1H-pyrazol-4-yl]-1,6-naphthyridin-2(1H)-one methanesulfonate]	6.9
530 pM	500 pM	CCc1nc(Cl)cc2[nH]c(N3Cc4c(ccnc4-c4cnc(C5CC5)cc4OC)NC3=O)nc12.CS(=O)(=O)O [Example 154, 3-(6-chloro-4-ethyl-1H-imidazo[4,5-c]pyridin-2-yl)-5-(6-cyclopropyl-4-methoxypyridin-3-yl)-3,4-dihydropyrido[4,3-d]pyrimidin-2(1H)-one methanesulfonate]	10
